Source: patent US20230330093A1, “APPLICATION OF NITROGEN-CONTAINING SATURATED HETEROCYCLIC COMPOUND” (SHANGHAI PHARMACEUTICALS HOLDING CO., LTD., priority 2020, published 2023)
Values joined by “and” are separate entries in the source; they are usually repeats but may differ in a detail not shown here. Equal entries are not always repeated.

Experiments:
Assay type in all cases: in vivo, Macaca mulatta (Rhesus Macaque)
[1] = system: rhesus monkeys with spontaneous chronic kidney disease; test: Effect on plasma creatinine Cr-P, 8-week administration; details: Valsartan group (n = 3)
Procedure: (§1) In the trial, animals were brought in three stages. […] Glomerular filtration rate […]: creatinine (Cr-P), urea nitrogen (BUN) and cystatin (CysC) were detected, and the eGFR value was obtained by calculation. It was performed once before the administration and once every two weeks after the administration. […] ELISA kit was used for NT-proBNP test. [table]

[2] = system: rhesus monkeys with spontaneous chronic kidney disease; test: Effect on NT-proBNP (ELISA), 8-week administration; details: Valsartan group (n = 3)
Text: In the trial, animals were brought in three stages. […] ELISA kit was used for NT-proBNP test. [table]

[3] = system: rhesus monkeys with spontaneous chronic kidney disease; test: Effect on cystatin C (CysC), 8-week administration; details: Valsartan group (n = 3)
Procedure: as §1

[4] = system: rhesus monkeys with spontaneous chronic kidney disease; test: Effect on BUN, 8-week administration; details: Valsartan group (n = 3)
Procedure: as §1

[5] = system: rhesus monkeys with spontaneous chronic kidney disease; test: Effect on blood pressure (SBP, DBP, MBP, HR) after anesthesia, 8-week administration; details: for DBP / SBP: Valsartan group (n = 3)
Text: In the trial, animals were brought in three stages.
Route of administration: Oral administration.
After anesthesia, the animal was placed in a supine position. The left upper arm was shaved clean, and a suitable size cuff was tied according to the standard. The blood oxygen probe was clamped on the animal's finger or toe (except for the left hand), and the red light-sensitive surface was on the side of the finger pad. The blood pressure of the animal was continuously measured for 3 times in the automatic mode with an interval of 1 min. If the difference of DBP, SBP and MBP of blood pressure measured more than three times was not significant (the difference between the highest value and the lowest value was less than 15 mmHg), the measurement was completed.
Testing equipment: GE B40i electrophysiological monitor.
See Table 16 for the effects of administration of each administration group on blood pressure. The blood pressure test of primates required anesthesia, so it was necessary to control the variability of heart rate at various time points to make statistics.

[6] = Baseline, single animals and Mean ± SD
[7] = Baseline, single animals and Mean ± SD, mean
[8] = Valsartan group (n=3), after W8 administration, p<0.01 vs placebo

SMILES: CCCCC(=O)N(Cc1ccc(-c2ccccc2-c2nnn[nH]2)cc1)[C@H](C(=O)O)C(C)C [Valsartan, reference compound]
- Cr-P ([1]; 2 weeks): 1.12 mg/dL and 1.22 mg/dL
- Cr-P ([1]; 2 weeks, mean): 1.15 ± 0.06 mg/dL
- Cr-P ([1]; 4 weeks): 1.12 mg/dL and 1.08 mg/dL and 1.26 mg/dL
- Cr-P ([1]; 4 weeks, mean): 1.15 ± 0.09 mg/dL
- Cr-P ([1]; 6 weeks): 1.11 mg/dL and 1.26 mg/dL
- Cr-P ([1]; 6 weeks, mean): 1.16 ± 0.09 mg/dL
- Cr-P ([1]; 8 weeks): 1.09 mg/dL and 1.03 mg/dL and 1.26 mg/dL
- Cr-P ([1]; 8 weeks, mean): 1.13 ± 0.12 mg/dL
- Cr-P [1, 6]: 1.28 mg/dL and 1.31 mg/dL and 1.50 mg/dL
- Cr-P [1, 7]: 1.36 ± 0.12 mg/dL
- NT-proBNP ([2]; 4 weeks): 179 pg/mL and 260 pg/mL and 285 pg/mL
- NT-proBNP ([2]; 4 weeks, mean): 241 ± 56 pg/mL
- NT-proBNP ([2]; 8 weeks): 217 pg/mL and 288 pg/mL and 291 pg/mL
- NT-proBNP ([2]; 8 weeks, mean): 266 ± 42 pg/mL
- NT-proBNP [2, 6]: 211 pg/mL and 500 pg/mL and 394 pg/mL
- NT-proBNP [2, 7]: 368 ± 146 pg/mL
- CysC ([3]; 2 weeks): 1.44 mg/L and 1.62 mg/L and 1.76 mg/L
- CysC ([3]; 2 weeks, mean): 1.61 ± 0.16 mg/L
- CysC ([3]; 4 weeks): 1.47 mg/L and 1.65 mg/L and 1.74 mg/L
- CysC ([3]; 4 weeks, mean): 1.62 ± 0.14 mg/L
- CysC ([3]; 6 weeks): 1.58 mg/L and 1.69 mg/L
- CysC ([3]; 6 weeks, mean): 1.62 ± 0.06 mg/L
- CysC ([3]; 8 weeks): 1.59 mg/L and 1.64 mg/L and 1.63 mg/L
- CysC ([3]; 8 weeks, mean): 1.62 ± 0.03 mg/L
- CysC [3, 6]: 1.66 mg/L and 1.68 mg/L and 1.73 mg/L
- CysC [3, 7]: 1.69 ± 0.04 mg/L
- BUN ([4]; 4 weeks): 22.2 mg/dL and 29.1 mg/dL and 33.4 mg/dL
- BUN ([4]; 4 weeks, mean): 28.2 ± 5.7 mg/dL
- BUN ([4]; 8 weeks): 19.5 mg/dL and 33.4 mg/dL and 26.0 mg/dL
- BUN ([4]; 8 weeks, mean): 26.3 ± 7.0 mg/dL
- BUN ([4]; Baseline2, single animals and Mean ± SD): 19.0 mg/dL and 25.4 mg/dL and 31.2 mg/dL
- BUN ([4]; Baseline2, single animals and Mean ± SD, mean): 25.2 ± 6.1 mg/dL
- DBP ([5]; 4 weeks): 62 mmHg and 53 mmHg
- SBP ([5]; 4 weeks): 130 mmHg and 106 mmHg and 138 mmHg
- DBP ([5]; 4 weeks, mean): 59 ± 5 mmHg
- SBP ([5]; 4 weeks, mean): 125 ± 17 mmHg
- DBP ([5]; 8 weeks): 61 mmHg and 53 mmHg and 75 mmHg
- SBP ([5]; 8 weeks): 121 mmHg and 107 mmHg and 133 mmHg
- DBP ([5]; 8 weeks, mean): 63 ± 11 mmHg
- SBP ([5]; 8 weeks, mean): 120 ± 13 mmHg
- DBP ([5]; Baseline): 67 mmHg and 60 mmHg and 82 mmHg
- DBP ([5]; Baseline, mean): 70 ± 11 mmHg
- SBP [5, 6]: 131 mmHg and 125 mmHg and 148 mmHg
- SBP [5, 7]: 135 ± 12 mmHg
- DBP decreased by on average, compared with the baseline [5, 8]: 7±0 mmHg
- SBP decreased by on average, compared with the baseline [5, 8]: 14±4 mmHg
